Results from the Deep4Chem optical property database.

Assay: solvent given as SMILES
Conditions: in CO

Row | SMILES | emission maximum [nm]
1 | COc1ccc(C#Cc2nc3ccccc3nc2-c2cn(C)c3ccccc23)cc1 | 525
2 | COc1ccc(-c2nc3c(c4c2-c2ccccc2CC4)-c2ccccc2CC3)cc1 | 428

Same assay, conditions: in CS(C)=O

Row | SMILES | emission maximum [nm]
3 | O=C(O)CCCOc1cccc(-c2c3nc(cc4ccc([nH]4)c(-c4cccc(OCCCC(=O)O)c4)c4nc(cc5ccc2[nH]5)C=C4)C=C3)c1 | 632
4 | COc1cc2cc(-c3cc4cc(OC)c(OC)cc4oc3=O)oc2cc1OC | 500
5 | Cc1ccc(N/C=C/C=[NH+]c2ccc(C)cc2)cc1 | 491
6 | COc1ccc(-c2nc3c(c4c2-c2ccccc2CC4)-c2ccccc2CC3)cc1 | 415

Same assay, conditions: in Cc1ccccc1

Row | SMILES | emission maximum [nm]
7 | CC1(C)c2ccccc2N(c2ccc3c(c2)c2cc(N4c5ccccc5C(C)(C)c5ccccc54)ccc2c2nc4ccccc4nc32)c2ccccc21 | 553
8 | Cc1cc(C)c(N(c2ccccc2)c2ccc(S(=O)(=O)c3ccc(S(=O)(=O)c4ccc(N(c5ccccc5)c5c(C)cc(C)cc5C)cc4)cc3)cc2)c(C)c1 | 450
9 | CC(C)(C)c1ccc2c(c1)c1cc(C(C)(C)C)ccc1n2-c1ccccc1-c1nccnc1C#N | 490
10 | CN(C)c1ccc(-c2cc(=O)c3ccccc3o2)cc1 | 417
11 | Fc1c(F)c(-n2c3ccccc3c3ccccc32)c(F)c(F)c1-c1nnc(-c2ccccc2)o1 | 444
12 | COc1ccc(C#Cc2nc3ccccc3nc2-c2cn(C)c3ccccc23)cc1 | 468
13 | CC(C)(C)c1ccc2c(c1)c1cc(C(C)(C)C)ccc1n2-c1ccccc1-c1nc(-c2ccccc2-n2c3ccc(C(C)(C)C)cc3c3cc(C(C)(C)C)ccc32)nc(-c2ccccc2P(=O)(c2ccccc2)c2ccccc2)n1 | 493.22
14 | COc1cc2cc(-c3cc4cc(OC)c(OC)cc4oc3=O)oc2cc1OC | 475
15 | CN(c1ccccc1)c1ccc(-c2ccc(-c3ccc(N(C)c4ccccc4)cc3)c3nc(-c4ccccc4)c(-c4ccccc4)nc23)cc1 | 627
16 | Cc1ccc(N2C(c3ccccc3[N-]S(=O)(=O)c3ccc(C)cc3)=[NH+]C(c3ccccc3)C2c2ccccc2)cc1 (stereo not given) | 499
17 | COc1ccc(-c2nc3c(c4c2-c2ccccc2CC4)-c2ccccc2CC3)cc1 | 419

Same assay, conditions: in ClC(Cl)(Cl)Cl

Row | SMILES | emission maximum [nm]
18 | COc1ccc(/C=C/C2=[O+][B-](F)(F)OC(/C=C/c3ccc(OC)cc3)=C2c2ccccc2)cc1 | 515

Same assay, conditions: in ClC(Cl)Cl

Row | SMILES | emission maximum [nm]
19 | CC(C)(C)c1ccc2c(c1)c1cc(C(C)(C)C)ccc1n2-c1ccccc1-c1nc(-c2ccccc2-n2c3ccc(C(C)(C)C)cc3c3cc(C(C)(C)C)ccc32)nc(-c2ccccc2P(=O)(c2ccccc2)c2ccccc2)n1 | 516.24
20 | CN(c1ccccc1)c1ccc(-c2ccc(-c3ccc(N(C)c4ccccc4)cc3)c3nc(-c4ccccc4)c(-c4ccccc4)nc23)cc1 | 640

Continued, values first:

Row | emission maximum [nm] | SMILES
21 | 641 | CCCCCCCCn1c(=O)c2cc3c(C#Cc4ccc(N(c5ccccc5)c5ccccc5)cc4)c4cc5c(=O)n(CCCCCCCC)c(=O)c5cc4c(C#Cc4ccc(N(c5ccccc5)c5ccccc5)cc4)c3cc2c1=O
22 | 665 | CN1C(=CC2=C([O-])C(=CC3=[N+](C)c4ccccc4C3(C)C)C2=NC#N)C(C)(C)c2ccccc21
23 | 449 | F[B-]1(F)OC(c2ccc(Br)cc2)=Cc2c3ccccc3c3ccccc3[n+]21

Same assay, conditions: in ClCCl

Row | SMILES | emission maximum [nm]
24 | COc1ccc(/C=C/C2=[O+][B-](F)(F)OC(/C=C/c3ccc(OC)cc3)=C2c2ccccc2)cc1 | 554
25 | CC(C)(C)OC(=O)CN1CCN(c2ccc3c(-c4ccc(I)cc4)c4ccc(=[N+]5CCN(CC(=O)OC(C)(C)C)CC5)cc-4oc3c2)CC1 | 586
26 | COc1ccc(C#Cc2nc3ccccc3nc2-c2cn(C)c3ccccc23)cc1 | 506
27 | COc1cccc(/C=C/C(=O)c2c(O)cc(C)oc2=O)c1 | 490
28 | CC(C)(C)c1ccc2c(c1)c1cc(C(C)(C)C)ccc1n2-c1ccccc1-c1nc(-c2ccccc2-n2c3ccc(C(C)(C)C)cc3c3cc(C(C)(C)C)ccc32)nc(-c2ccccc2P(=O)(c2ccccc2)c2ccccc2)n1 | 529.29
29 | C[C@H](Nc1c2ccc(=[N+]3CCCCC3)cc-2oc2cc(N3CCCCC3)ccc12)C(=O)OC(C)(C)C | 544
30 | COc1ccc(-c2nc3c(c4c2-c2ccccc2CC4)-c2ccccc2CC3)cc1 | 424

Results, then the compound that gave them:

Row | emission maximum [nm] | SMILES
31 | 502 | C[n+]1ccc(/C=C/c2ccc(N(c3ccccc3)c3ccc(/C=C/c4cc[n+](C)cc4)cc3)cc2)cc1
32 | 434 | c1cncc(-c2ccc(-c3c4ccccc4c(-c4ccc(-c5cccnc5)cc4)c4cc(-c5cccnc5)ccc34)cc2)c1
33 | 686 | COc1ccc(C2=C3C(/C=C/c4cc(OC)c(OC)c(OC)c4)=C(C=O)C(C)=[N+]3[B-](F)(F)n3c(/C=C/c4cc(OC)c(OC)c(OC)c4)c(C=O)c(C=Cc4cc(OC)c(OC)c(OC)c4)c32)cc1
34 | 730 | CCC(CC)COC1=CC2=C3c4cc(OCC(CC)CC)c(-c5ccccc5)n4[B-](F)(F)[n+]4nnn(c43)[B-](F)(F)[N+]2=C1c1ccccc1
35 | 432 | CCCCN1C(=O)c2cccc3c(C#CC#Cc4ccc5c6c(cccc46)C(=O)N(CCCC)C5=O)ccc(c23)C1=O
36 | 526 | CCCc1c(C(=O)c2ccc3c4c(cccc24)-c2cccc4c2C3CC=C4)c2ccc3cccc4c5cccc6ccc1c(c65)c2c34 (stereo not given)

Same assay, conditions: in O

Row | SMILES | emission maximum [nm]
37 | COc1cc2cc(-c3cc4cc(OC)c(OC)cc4oc3=O)oc2cc1OC | 435
38 | O=C(O)CCCCCn1c2ccc(Br)cc2c(=O)c2cc(Br)ccc21 | 439

Now from value to compound:

Row | emission maximum [nm] | SMILES
39 | 656 | C[n+]1ccc(/C=C/c2ccc(N(c3ccccc3)c3ccc(/C=C/c4cc[n+](C)cc4)cc3)cc2)cc1
40 | 603 | CC[n+]1c(-c2ccccc2)c2cc(-n3cccc3)ccc2c2ccc(N)cc21

Same assay, conditions: in O=P(c1ccccc1)(c1ccccc1)c1ccccc1Oc1ccccc1P(=O)(c1ccccc1)c1ccccc1

Row | SMILES | emission maximum [nm]
41 | CC(C)(C)c1ccc2c(c1)c1cc(C(C)(C)C)ccc1n2-c1ccccc1-c1nc(-c2ccccc2-n2c3ccc(C(C)(C)C)cc3c3cc(C(C)(C)C)ccc32)nc(-c2ccccc2P(=O)(c2ccccc2)c2ccccc2)n1 | 500

Same assay, conditions: in OCC(O)CO

Row | emission maximum [nm] | SMILES
42 | 649 | C[n+]1ccc(/C=C/c2ccc(N(c3ccccc3)c3ccc(/C=C/c4cc[n+](C)cc4)cc3)cc2)cc1

Same assay, conditions: in c1cc(-c2cccc(-n3c4ccccc4c4ccccc43)c2)cc(-n2c3ccccc3c3ccccc32)c1

Row | SMILES | emission maximum [nm]
43 | CC1(C)c2ccccc2N(c2ccc3c(c2)c2cc(N4c5ccccc5C(C)(C)c5ccccc54)ccc2c2nc4ccccc4nc32)c2ccccc21 | 565

Same assay, conditions: in c1cc(-n2c3ccccc3c3ccccc32)cc(-n2c3ccccc3c3ccccc32)c1

Row | SMILES | emission maximum [nm]
44 | CC(C)(C)c1ccc2c(c1)c1cc(C(C)(C)C)ccc1n2-c1ccccc1-c1nccnc1C#N | 483

Same assay, conditions: in c1cc(-n2c3ccccc3c3ccccc32)nc(-n2c3ccccc3c3ccccc32)c1

Row | SMILES | emission maximum [nm]
45 | Cc1cc(C)c(N(c2ccccc2)c2ccc(S(=O)(=O)c3ccc(S(=O)(=O)c4ccc(N(c5ccccc5)c5c(C)cc(C)cc5C)cc4)cc3)cc2)c(C)c1 | 452.12
